Test results as given in patent US5071845A, “Benzoxazepine derivative” (Suntory Limited, priority 1988, dated 1991).

molecular target: T1, 5HT1A serotonin receptor (Rattus norvegicus, UniProt P19327); assay: Affinity for Serotonin Receptor ([3H]8-OH-DPAT binding, rat cerebral cortex homogenate); parameters: species or system rat (Wistar strain, male); conditions: [3H]8-OH-DPAT 0.4 nM, 25° C., 30 minutes
T1 construct: To the cerebral cortex enucleated from a Wistarstrain male rat; from tissue; host or cells: cerebral cortex of male Wistar rat, washed membrane homogenate
T1 sequence (P19327 1-422): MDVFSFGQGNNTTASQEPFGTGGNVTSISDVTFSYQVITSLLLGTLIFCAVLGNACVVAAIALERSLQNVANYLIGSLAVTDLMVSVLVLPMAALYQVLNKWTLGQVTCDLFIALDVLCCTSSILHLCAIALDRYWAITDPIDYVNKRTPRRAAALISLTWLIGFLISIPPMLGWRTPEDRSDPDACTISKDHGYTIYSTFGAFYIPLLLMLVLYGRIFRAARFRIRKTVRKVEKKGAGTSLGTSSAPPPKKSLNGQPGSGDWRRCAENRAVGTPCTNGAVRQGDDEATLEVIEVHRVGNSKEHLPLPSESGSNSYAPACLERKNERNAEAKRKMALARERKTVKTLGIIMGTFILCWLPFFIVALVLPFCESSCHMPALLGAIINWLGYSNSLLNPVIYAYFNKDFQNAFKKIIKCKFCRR
Description: The test was conducted according to the method of S. T. Perouka (J. Neurochem., 47, 529-540 (1986)).
To the cerebral cortex enucleated from a Wistarstrain male rat was added 50 mM Tris-HCl (pH 7.7) buffer and the mixture was homogenized by using Polytron®. The homogenate was centrifuged at 40,000 G for 10 minutes, and to the obtained precipitate was added the same buffer to effect homogenization, followed by incubation at 37° C. for 30 minutes. The suspension was centrifuged again at 40,000 G for 10 minutes, and to the obtained precipitate was added the same buffer to effect homogenization, followed by centrifugation at 40,000 G for 10 minutes. To the final obtained precipitate was added 50 mM Tris-HCl (10 μm pargyline, 4 mM CaCl2, 0.1% ascorbic acid) (pH 7.4) buffer, to effect homogenization, and the homogenate was used for the binding test. The (^3 H) 8-OH-DPAT used for the binding test was 0.4 nM, with a protein amount of 0.4 to 0.6 mg/ml, and a total amount of 1 ml. After incubation at 25° C. for 30 minutes, the mixture was filtered by a filtration method using a Whatman GF/B filter, and the filter was washed three times with 5 ml of the same buffer.
To the filter was added a scintillation cocktail, and a measurement was conducted by a liquid scintillation counter.

| SMILES | IC50 |
| --- | --- |
| COc1ccnc(N2CCN(CCCCN3C(=O)COc4ccccc4C3=O)CC2)n1 [Example 83, 4-(4-(4-(4-methoxy-2-pyrimidinyl)piperazinyl)butyl)-2,3,4,5-tetrahydro-1,4-benzoxazepine-3,5-dione] | 4.16 nM |
| O=C1COc2ccccc2C(=O)N1CCCCN1CCN(c2ncccn2)CC1 [Example 52, 4-(4-(4-(2-pyrimidinyl)piperazinyl)butyl)-2,3,4,5-tetrahydro-1,4-benzoxazepine-3,5-d] | 3.75 nM |
| O=C1COc2cc(Cl)ccc2C(=O)N1CCCCN1CCN(c2ncccn2)CC1 [Example 64, 8-chloro-4-(4-(4-(2-pyrimidinyl)piperazinyl)butyl)-2,3,4,5-tetrahydro-1,4-benzoxazepine-3,5-dione] | 4.1 nM |
| COc1ccc2c(c1)C(=O)N(CCCCN1CCN(c3ncccc3Cl)CC1)C(=O)CO2 [Example 54, 7-methoxy-4-(4-(4-(3-chloro-2-pyridyl)-piperazinyl)butyl)-2,3,4,5-tetrahydro-1,4-benzoxazepine-3,5-dione] | 4.91 nM |
| O=C1COc2cc(Cl)ccc2C(=O)N1CCCCN1CCN(c2ccccn2)CC1 [Example 59, 8-chloro-4-(4-(4-(2-pyridyl)piperazinyl)butyl)-2,3,4,5-tetrahydro-1,4-benzoxazepine-3,5-dione] | 1.78 nM |
| O=C1COc2ccccc2C(=O)N1CCCCN1CCN(c2ccccc2Cl)CC1 [Example 36, 4-(4-(4-(2-chlorophenyl)piperazinyl)butyl)-2,3,4,5-tetrahydro-1,4-benzoxazepine-3,5] | 2.31 nM |
| Cc1ccc2c(c1)OCC(=O)N(CCCCN1CCN(c3ccccn3)CC1)C2=O [Example 65, 8-methyl-4-(4-(4-(2-pyridyl)piperazinyl)butyl)-2,3,4,5-tetrahydro-1,4-benzoxazepine-3,5-dione] | 1.55 nM |
| COc1ccc2c(c1)OCC(=O)N(CCCCN1CCN(c3ncccn3)CC1)C2=O [Example 72, 8-methoxy-4-(4-(4-(2-pyrimidinyl)piperazinyl)butyl)-2,3,4,5-tetrahydro-1,4-benzoxazepine-3,5-dione] | 4.26 nM |
| O=C1COc2ccccc2C(=O)N1CCCCN1CCN(c2cccc(Cl)c2)CC1 [Example 39] | 1.41 nM |
| Cc1ccc2c(c1)OCC(=O)N(CCCCN1CCN(c3ncccn3)CC1)C2=O [Example 70, 8-methyl-4-(4-(4-(2-pyrimidinyl)piperazinyl)butyl)-2,3,4,5-tetrahydro-1,4-benzoxazepine-3,5-dione] | 4.75 nM |
| O=C1COc2ccccc2C(=O)N1CCCCN1CCN(c2ccc(F)cc2)CC1 [Example 43, 4-(4-(4-(4-fluorophenyl)piperazinyl)-butyl)-2,3,4,5-tetrahydro-1,4-benzoxazepine-3,5] | 2.48 nM |
| O=C1COc2ccccc2C(=O)N1CCCCN1CCN(c2ncccc2Cl)CC1 [Example 48] | 2.77 nM |
| COc1ccccc1N1CCN(CCCCN2CCOc3ccccc3C2=O)CC1 [Example 30] | 2.62 nM |
| COc1ccc2c(c1)C(=O)N(CCCCN1CCN(c3ncccn3)CC1)C(=O)CO2 [Example 58, 7-methoxy-4-(4-(4-(2-pyrimidinyl)piperazinyl)butyl)-2,3,4,5-tetrahydro-1,4-benzoxaze-3,5-dione] | 5.02 nM |
| O=C1c2ccccc2OCCN1CCCCN1CCN(c2ccccn2)CC1 [Example 27, 4-(4-(4-(2-pyridyl)piperazinyl)butyl)-2,3,4,5-tetrahydro-1,4-benzoxazepine-5-one] | 6.15 nM |
